This passage reports AC50 results from PubChem BioAssay AID651703 (Broad Institute, 2012).

Bounds are passed on as bounds.

The target in this test is Transforming acidic coiled-coil-containing protein 3 (Homo sapiens) (UniProt Q9Y6A5). The test can be described thus: ARNT/TACC3 interaction disruptors, potency, confirmation, biochemical, AlphaScreen, cherry-picked samples (AID 651703).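 Note: TACC3 partner is the GST-tagged E629A mutant dimer; hits lower the signal meaning they disrupt ARNT binding to TACC3.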 To be noted: AlphaScreen His-ARNT PAS-B / GST-TACC3 binding, luminescence. In general terms: Alpha assays give light when donor and acceptor beads are brought close together.
By AC50 is commonly meant the concentration giving half of the maximal activity seen. As for `Cc1cccc(S(=O)(=O)N[C@H]2CC[C@@H](CCn3cc(-c4ccccn4)nn3)O[C@@H]2CO)c1`, the AC50 was 24.3 µM.
With `c1ccc(-c2nn[nH]n2)nc1`, the AC50 was 5.22 µM.
Then `O=C(CN1CC(=O)Oc2ccccc21)NCc1ccco1`, with 2.05 µM.
Then `COc1ccc(Nc2cc3n(c(=O)n2)CCc2cc(OC)c(OC)cc2-3)cc1`, with 68.6 µM; and `CN1CCN(c2cc(-c3cc(O)c4ncccc4c3)ccn2)CC1`, with 1.77 µM.
The figure for `O=C(O)CSc1c(O)c2ccccc2[nH]c1=O` is 34.5 µM; for `CC(=O)NC(c1cccs1)c1cc([N+](=O)[O-])c2cccnc2c1O` (stereo unspecified) it is 2.71 µM; for `CC(=O)c1cccc(-c2ccc3c(=O)[nH]c(Nc4ccccc4)cc3c2)c1` it is 23.1 µM.
As for `O=C(Nc1nc(-c2ccccn2)cs1)c1cc(S(=O)(=O)N2CCOCC2)ccc1F`, the concentration at half-maximal activity (AC50) was 4.43 µM.
Then `O=C(N[C@@H]1CC[C@@H](CCn2cc(-c3ccccn3)nn2)O[C@@H]1CO)c1ccncc1`, with 10.3 µM.
On to `O=S(=O)(N[C@H]1CC[C@H](CCn2cc(-c3ccccn3)nn2)O[C@@H]1CO)c1cccc(Cl)c1`, for which the AC50 is 19.2 µM.
Regarding `CNCc1cn2cc(Cl)ccc2n1`, the half-maximal activity concentration (AC50) is 21 µM.
For the molecule `O=C(CSc1n[nH]c(-c2ccccn2)n1)Nc1cccc(Cl)c1`, the half-maximal activity concentration (AC50) is 4.78 µM.
The figure for `Cc1c(Cl)cccc1-c1ccc(CNCc2ccccn2)o1` is 35.2 µM.
Then `CC(=O)c1cccc(NC(=O)CSc2ccc(-c3ccccn3)nn2)c1`, with 3.21 µM.
Then `Cc1nnc(NC(=O)C2CCN(S(=O)(=O)c3cc([N+](=O)[O-])ccc3Cl)CC2)o1`, with 21.9 µM; and `Cc1cccc(NC(=O)CSc2cccc3cccnc23)c1`, with 21.8 µM.
For the molecule `COCCN=c1scc(-c2ccco2)n1/N=C/c1ccc(O)c(O)c1O`, the half-maximal activity concentration (AC50) was 9.77 µM.
Then `CCOC(=O)N1CCN(C(c2cccnc2)c2ccc3cccnc3c2O)CC1` (stereo unspecified), with 4.64 µM.
The figure for `O=C(Nc1nnc(C2CC2)o1)c1ccc(S(=O)(=O)N2CCCCC2)cc1` is 18.4 µM.
Then `O=S(=O)(N[C@H]1CC[C@H](CCn2cc(-c3ccccn3)nn2)O[C@H]1CO)c1cccc(F)c1`, with 21.8 µM; and `COc1ccc(C(=O)Nc2nc(-c3ccccn3)cs2)cc1S(=O)(=O)N1CCOCC1`, with 3.13 µM; and `Cc1sc2ncnc(N/N=C/c3ccccc3O)c2c1C`, with 10.1 µM.
With `Oc1cc(NCc2ccc(F)cc2)cc2cccnc12`, the half-maximal activity concentration (AC50) is 8.9 µM.
The figure for `Cc1ccc(CNc2nc(-c3ccccn3)nnc2-c2ccccc2)cc1C` is 0.558 µM; for `COc1ccc(C2=Nn3c(nnc3-c3ccccn3)SC2)cc1` it is 11.2 µM.
The figure for `COC(=O)c1ccc2[nH]c3c(c2c1)CC(C)CC3` (stereo unspecified) is 33.2 µM.
Then `O=C(Oc1c(CN2CCOCC2)cc(Cl)c2cccnc12)c1ccccc1Br`, with 10.3 µM.
As to `C#CCOCCOCCOCCNc1nc(N2CCN(C(=O)[C@H](CC(N)=O)n3cc([C@@H](N)CC(N)=O)nn3)CC2)nc(N2CCN(C(=O)[C@H](CC(N)=O)n3cc([C@@H](N)CC(N)=O)nn3)CC2)n1`, the AC50 was 47.1 µM.
Turning to `CCCCC(=O)NC(c1ccc(N(C)C)cc1)c1ccc2cccnc2c1O` (stereo unspecified), the concentration at half-maximal activity (AC50) was 2.63 µM.
Then `CN1CCN(c2nc(-c3ccccn3)nnc2-c2ccccc2)CC1`, with below 0.5 µM.
The figure for `O=C(CSc1ccc(-c2ccccn2)nn1)Nc1cccc(F)c1` is 1.16 µM; for `Nc1[nH]c(=O)nc(Nc2ccccc2)c1N=O` it is 21.2 µM; for `O=C(O)c1cn[nH]c1-n1cnnn1` it is 40.6 µM.
The figure for `Nc1ccccc1C(=O)N=Nc1[nH]c(N)c2ccccc12` is 10.3 µM.
For `CCOC(=O)c1c(OCC)[nH]c2c1cc(O)c1ccccc12`, the AC50 is 56.9 µM.
Regarding `O=C(N[C@H]1CC[C@H](CCn2cc(-c3ccccn3)nn2)O[C@@H]1CO)c1ccccc1`, the concentration at half-maximal activity (AC50) was 13 µM.
For the molecule `O=C(CNS(=O)(=O)c1ccc([N+](=O)[O-])cc1)N/N=C/c1ccc(O)cc1O`, the AC50 is 19.2 µM.
The figure for `Nc1ccc2nc(-c3ccccn3)[nH]c2c1` is 10.1 µM.
Then `O=C(CSc1cccc2cccnc12)OCC(=O)c1ccccc1`, with 37.3 µM; and `CC(C)C(=O)NC(c1cccc([N+](=O)[O-])c1)c1ccc2cccnc2c1O` (stereo unspecified), with 3.82 µM; and `COc1cc(C(=O)NCc2nnc(SCC(=O)Nc3nccs3)o2)cc(OC)c1OC`, with 58.8 µM.
With `O=C(COc1ccc([N+](=O)[O-])cc1)Nc1nc(-c2ccccn2)cs1`, the half-maximal activity concentration (AC50) is 6.57 µM.
The figure for `Cc1ccc(C(=O)Nc2nc(-c3ccccn3)cs2)s1` is 4.78 µM; for `OCCN1CCN(Cc2cc(Cl)c3cccnc3c2O)CC1` it is 1.34 µM; for `Cc1ccc(NC(=O)CSc2ccc(-c3ccccn3)nn2)cc1F` it is 3.98 µM.
Then `C/C(=N\NC(=O)C(C)Oc1ccc([N+](=O)[O-])cc1)c1ccccn1` (stereo unspecified), with 4.39 µM; and `O=C(Oc1c(CN2CCOCC2)cc(Cl)c2cccnc12)c1cccs1`, with 15.2 µM.
Then `CCOc1cc(CNCc2ccccn2)cc(Cl)c1OC`, with 39.7 µM.
On to `O=C(CN1CCCCCCC1)N/N=C/c1ccc(F)c(F)c1`, for which the AC50 was 65.8 µM.
Then `CC(C)(C)c1ccc(OCCNC(=O)c2ncn[nH]2)cc1`, with 15.8 µM; and `C/C(=N\NC(=O)c1c[nH]c2ccccc12)c1ccc(C)o1`, with 16.4 µM.
On to `C[C@H]1CN([C@@H](C)CO)C(=O)Cc2cc(NC(=O)Nc3cccc4ccccc34)ccc2O[C@@H]1CN(C)Cc1ccc(Oc2ccccc2)cc1`, for which the concentration at half-maximal activity (AC50) was 47.3 µM.
As for `CN(C)CCCNc1cc(O)c2ncccc2c1`, the AC50 was 0.583 µM.
The figure for `O=C(CSc1n[nH]c(-c2ccccn2)n1)Nc1ccc(F)cc1` is 1.09 µM; for `Cc1[nH][nH]c(=O)c1C(c1ccc(-c2ccc(C(=O)O)cc2)o1)c1c(C)[nH][nH]c1=O` it is 64.1 µM; for `Cc1ccc(S(=O)(=O)NC(=O)c2cc(C)n(CCCn3ccnc3)c2C)cc1` it is 21.2 µM.
Consider `OCCN1CCN(C(=S)c2ccc(Cl)c(Cl)c2)CC1`, for which the AC50 is 33.2 µM.
The figure for `COc1ccc(NC(=O)CSc2n[nH]c(-c3ccccn3)n2)cc1` is 0.963 µM; for `c1ccc(-c2cn(C[C@H]3CC[C@@H]([C@@H]4CC[C@H](Cn5cc(-c6ccccn6)nn5)O4)O3)nn2)nc1` it is 0.659 µM; for `O=C(Nc1nc(-c2ccccn2)cs1)c1ccco1` it is 2.17 µM.
For the molecule `c1ccc(-c2nnc(-c3ccccn3)nc2NCC2CCCCC2)cc1`, the concentration at half-maximal activity (AC50) is 0.994 µM.
On to `O=C(Nc1nnc(-c2ccc(F)cc2)o1)c1ccco1`, for which the half-maximal activity concentration (AC50) was 37 µM.
For `O=C(CSc1ccc2nnc(-c3ccccn3)n2n1)NCc1ccco1`, the AC50 was 9.49 µM.
The figure for `C[C@H](Nc1nc(-c2ccccn2)nnc1-c1ccccc1)C1CCCCC1` is 0.53 µM.
Then `NCCc1cnc[nH]1`, with 23.1 µM; and `O=C(NC[C@@H]1[C@H](c2ccccc2)[C@H](CO)N1Cc1ccccn1)C1CCC1`, with 28.2 µM; and `CCN(CC)c1ccc(/C=N/NC(=O)c2cnccn2)c(O)c1`, with 11.3 µM.
Turning to `Nn1c(SC/C=C/c2ccccc2)nnc1-c1ccccn1`, the AC50 is 5.62 µM.
Regarding `CC(=O)Nc1cccc(NC(=O)CSc2ccc(-c3ccccn3)nn2)c1`, the AC50 was 2.78 µM.
Regarding `O=C(N/N=C\c1cccc([N+](=O)[O-])c1O)C1COc2ccccc2O1` (stereo unspecified), the AC50 is 14.7 µM.
